# Legend:
# [1] = system: A549; test: In vitro anti-proliferative activity against human tumor cell lines (A549); format: cell-based; conditions: A549, Lung carcinoma, 72 hours
# Description: (§1) In vitro anti-proliferative activity against human tumor cell lines
# (§2) Test Compound: 5-ethynyl-1-β-D-ribofuranosylimidazole-4-carboxamide
# (§3) A variety of human tumor cell lines are suspended in media specified according to the species of the cell lines to predetermined cell concentrations as shown in the following Table.
# (§4) 1 ml of the resulting cell suspension is seeded into each well of a 24 multi-well plate and incubated in a 5% CO2 -incubator at 37° C. for 24 hours. The culture medium is then replaced by a medium containing no test compound or by an appropriate amount of a serially diluted test compound solution. […] The number of the cells in each well is counted with a Coulter counter (Model ZB, Coulter Electronics), and the growth inhibition percent (%) of the cells at each concentration of a test compound is determined by the following equation: [formula] Tx: Number of the cells in a well containing a test compound as counted upon completion of the incubation (cells/ml) […] Cx: Number of the cells in a well containing no test compound as counted upon completion of the incubation (cells/ml)
# (§5) Co: Number of the cells in a well containing no test compound as counted at the initiation of the incubation (cells/ml) […]
# [2] = system: SK-MES-1; test: In vitro anti-proliferative activity against human tumor cell lines (SK-MES-1); format: cell-based; conditions: SK-MES-1, Lung Squamous carcinoma, 72 hours
# Description: as §1, §2, §3, §4, §5
# [3] = system: QG-56; test: In vitro anti-proliferative activity against human tumor cell lines (QG-56); format: cell-based; conditions: QG-56, Lung squamous carcinoma, 72 hours
# Description: as §1, §2, §3, §4, §5
# [4] = system: sarcoma 180; test: In vivo antitumor activity against sarcoma 180 intracutaneously implanted into BALB/c mice; design: species or system mouse; key to Tumor growth rate (Rt): R = tumor volume at time / tumor volume on day 8 (A/A8); conditions: for antitumor activity: i.v.
# Description: In vivo antitumor activity against sarcoma 180 intracutaneously implanted into BALB/c mice
# Three million (3×10^6) Sarcoma 180 cells are intracutaneously implanted at the ventral site of BALB/c mice (male, 5 weeks old). Eight days after the implantation when the tumor volume reached 200 to 300 mm^3, the mice are divided into groups (6 mice/group), and the treatment with a test drug was started. The test drug is dissolved in distilled water and intravenously administered to the mice at a rate of 0.1 ml per 10 g of the body weight thereof. In accordance with two different schedules, 5-ethynyl01β-D-ribofuranosylimidazole-4-carboxamide is administered once or three times, i.e., once at a dose of 250 mg/kg on day 8 (single-dose group) or three times at a dose of 125 mg/kg on days 8, 12 and 16 (multiple-dose group).
# Each mouse is weighed, and the width (a mm) and length (b mm) of the tumor thereof are measured twice a week to determine the tumor volume (A mm^3) from the following equation: […]
# Subsequently, the tumor growth rate (R) is determined as follows on the basis of the tumor volume (A8) on day 8 after the implantation of the tumor cells :
# R: Tumor growth rate after a predetermined period from the tumor implantation
# A: Tumor volume after a predetermined period from the tumor implantation
# A8 : Tumor volume as determided 8 days after the tumor implantation
# T/C(%) is further obtained from the following equation by comparison between the tumor growth rate in the test group (Rt) and that in the control group (Rc):
# Single-dose group: 250 mg/kg of the drug was intravenously administered o
# day 8 after the tumor implantation.
# Multipledose group: 125 mg/kg of the drug was intravenously administered
# on days 8, 12 and 16 after the tumor implantation.
# [5] = system: Dul45; test: In vitro anti-proliferative activity against human tumor cell lines (Dul45); format: cell-based; conditions: Dul45, Prostate carcinoma, 72 hours
# Description: as §1, §2, §3, §4, §5
# [6] = system: T24; test: In vitro anti-proliferative activity against human tumor cell lines (T24); format: cell-based; conditions: T-24, T24, Bladder trasitional-cell carcinoma, 72 hours
# Description: as §1, §2, §3, §4, §5
# [7] = system: MG-63; test: In vitro anti-proliferative activity against human tumor cell lines (MG-63); format: cell-based; conditions: MG-63, Osteogenic sarcoma, 72 hours
# Description: as §1, §2, §3, §4, §5
# [8] = system: HEp-2; test: In vitro anti-proliferative activity against human tumor cell lines (HEp-2); format: cell-based; conditions: HEp-2, Laryngeal carcinoma, 72 hours
# Description: as §1, §2, §3, §4, §5
# [9] = system: Mouse lymphoma cell line P388; test: In vitro anti-proliferative activity against mouse tumor cell lines, Test Method 2 (P388); format: cell-based; conditions: P388, 48 hours, 37° C.
# Description: In vitro anti-proliferative activity against mouse tumor cell lines
# 1. Mouse lymphoma cell line P388 or mouse sarcoma 180 is suspended in RPMI1640 medium supplemented with 10% fetal bovine serum and 2 μM 2-hydroxyethyl disulfide to a concentration of 10^5 cells/ml. Test compounds are serially diluted with the same medium.
# 2. 0.5 ml of the cell suspension thus obtained is admixed with 0.5 ml of the medium or the test compound solution, and the mixture is incubated in a 5% CO2 -incubator at 37° C. for 48 hours. The incubation is carried out in glass culture tubes.
# 3. At the end of incubation, the number of the cells in each tube is counted with a Coulter counter (Model ZB, Coulter Electronics), and the growth inhibition percent (%) is calculated from the same equation as in Test Method 1.
# 4. The IC50 value is obtained as in Test Method I.
# [10] = multiple-dose group, 125 mg/kg i.v. days 8, 12, 16, day 8 after implantation
# [11] = multiple-dose group, 125 mg/kg i.v. days 8, 12, 16, day 12
# [12] = multiple-dose group, 125 mg/kg i.v. days 8, 12, 16, day 15, * = P < 0.05 vs control
# [13] = multiple-dose group, 125 mg/kg i.v. days 8, 12, 16, day 19, * = P < 0.05 vs control
# [14] = multiple-dose group, 125 mg/kg i.v. days 8, 12, 16, day 22, * = P < 0.05 vs control
# [15] = multiple-dose group, 125 mg/kg i.v. days 8, 12, 16, day 26, * = P < 0.05 vs control
# [16] = multiple-dose group, 125 mg/kg i.v. days 8, 12, 16, day 29, * = P < 0.05 vs control
# [17] = multiple-dose group, 125 mg/kg i.v. days 8, 12, 16, day 33
# [18] = single-dose group, 250 mg/kg i.v. day 8, day 8 after implantation
# [19] = single-dose group, 250 mg/kg i.v. day 8, day 12, * = P < 0.05 vs control
# [20] = single-dose group, 250 mg/kg i.v. day 8, day 15, * = P < 0.05 vs control
# [21] = single-dose group, 250 mg/kg i.v. day 8, day 19, * = P < 0.05 vs control
# [22] = single-dose group, 250 mg/kg i.v. day 8, day 22, * = P < 0.05 vs control
# [23] = single-dose group, 250 mg/kg i.v. day 8, day 26, * = P < 0.05 vs control
# [24] = single-dose group, 250 mg/kg i.v. day 8, day 29, * = P < 0.05 vs control
# [25] = single-dose group, 250 mg/kg i.v. day 8, day 33, * = P < 0.05 vs control
smiles,measurement,setting,value
C#Cc1c(C(N)=O)ncn1[C@@H]1O[C@H](CO)[C@@H](O)[C@H]1O [5-ethynyl-1-β-D-ribofuranosylimidazole-4-carboxamide],IC50,[1],0.37 µg/mL
same,IC50,[2],0.26 µg/mL
same,IC50,[3],0.37 µg/mL
same,antitumor activity,[4]; 125 mg/kg every 4 days 3 times in total,remarkable antitumor activity
same,Body weight,[4]; [10],26 g
same,T/C (%),[4]; [10],100%
same,Tumor growth rate (Rt),[4]; [10],1.0
same,Body weight,[4]; [11],26 g
same,T/C (%),[4]; [11],81%
same,Tumor growth rate (Rt),[4]; [11],1.5
same,Body weight,"[4]; multiple-dose group, 125 mg/kg i.v. days 8, 12, 16, day 15",25 g
same,T/C (%),[4]; [12],51%
same,Tumor growth rate (Rt),[4]; [12],1.5
same,Body weight,"[4]; multiple-dose group, 125 mg/kg i.v. days 8, 12, 16, day 19",25 g
same,T/C (%),[4]; [13],45%
same,Tumor growth rate (Rt),[4]; [13],1.9
same,Body weight,"[4]; multiple-dose group, 125 mg/kg i.v. days 8, 12, 16, day 22",26 g
same,T/C (%),[4]; [14],37%
same,Tumor growth rate (Rt),[4]; [14],2.6
same,Body weight,"[4]; multiple-dose group, 125 mg/kg i.v. days 8, 12, 16, day 26",26 g
same,T/C (%),[4]; [15],39%
same,Tumor growth rate (Rt),[4]; [15],4.7
same,Body weight,"[4]; multiple-dose group, 125 mg/kg i.v. days 8, 12, 16, day 29",26 g
same,T/C (%),[4]; [16],42%
same,Tumor growth rate (Rt),[4]; [16],7.0
same,Body weight,[4]; [17],27 g
same,T/C (%),[4]; [17],53%
same,Tumor growth rate (Rt),[4]; [17],11
same,antitumor activity,[4]; once at a dose of 250 mg/kg,remarkable antitumor activity
same,Body weight,[4]; [18],25 g
same,T/C (%),[4]; [18],100%
same,Tumor growth rate (Rt),[4]; [18],1.0
same,Body weight,"[4]; single-dose group, 250 mg/kg i.v. day 8, day 12",24 g
same,T/C (%),[4]; [19],65%
same,Tumor growth rate (Rt),[4]; [19],1.2
same,Body weight,"[4]; single-dose group, 250 mg/kg i.v. day 8, day 15",25 g
same,T/C (%),[4]; [20],45%
same,Tumor growth rate (Rt),[4]; [20],1.3
same,Body weight,"[4]; single-dose group, 250 mg/kg i.v. day 8, day 19",25 g
same,T/C (%),[4]; [21],46%
same,Tumor growth rate (Rt),[4]; [21],2.0
same,Body weight,"[4]; single-dose group, 250 mg/kg i.v. day 8, day 22",26 g
same,T/C (%),[4]; [22],34%
same,Tumor growth rate (Rt),[4]; [22],2.4
same,Body weight,"[4]; single-dose group, 250 mg/kg i.v. day 8, day 26",26 g
same,T/C (%),[4]; [23],39%
same,Tumor growth rate (Rt),[4]; [23],4.7
same,Body weight,"[4]; single-dose group, 250 mg/kg i.v. day 8, day 29",26 g
same,T/C (%),[4]; [24],39%
same,Tumor growth rate (Rt),[4]; [24],6.6
same,Body weight,"[4]; single-dose group, 250 mg/kg i.v. day 8, day 33",27 g
same,T/C (%),[4]; [25],45%
same,Tumor growth rate (Rt),[4]; [25],9.5
same,IC50,[5],< 0.1 µg/mL
same,IC50,[6],0.37 µg/mL
same,IC50,[7],0.38 µg/mL
same,IC50,[8],0.47 µg/mL
same,IC50,[9],0.16 µg/mL

# — US5059590A, “Imidazole derivatives, process for production thereof, and use thereof” (Yamasa Shoyu Kabushiki Kaisha, priority 1988, dated 1991)
